In US20240190855A1 (Relay Therapeutics, Inc., priority 2021, published 2024):

Assays:
CDK2/Cyclin E complex = target: T1, CDK2/Cyclin E complex (Homo sapiens, UniProt P24941); assay: CDK2/Cyclin E fluorescence-based microfluidic mobility shift assay (CDK2 Biochemical Caliper Assay); settings: read-out: Biochemical CDK2/CyclinE Caliper IC50
T1 construct: purchased Eurofins 14-475
In short: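 Microfluidic mobility-shift readout after EDTA termination measured phosphorylation of fluorescent FL Peptide 18 (1.5 uM final) in a 20 hr room-temperature reaction. Compounds were tested at 11 concentrations (3-fold).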

[1] = target: target tagged with nanoLuciferase in 293-NB2 cells (Homo sapiens, UniProt P24941); assay: nanoBRET TE Intracellular Kinase Assay (Cell nanoBRET Assay); type: cell-based
Protocol: Compounds described herein were also tested in a nanoBRET TE Intracellular Kinase Assay. Test compounds were prepared in a DMSO stock solution. 45 uL of stock solution was transferred to a 384 well plate (Greiner, 781201), and a 3-fold 11-point dilution was performed. 293-NB2 cells expressing target tagged with nanoLuciferase were diluted in cell growth media (DMEM+10% FBS+1% Pen/Strep media) and a 40 uL cell solution of 7.5E4 cells/mL was seeded in a separate 384 well cell culture plate and incubated overnight at 37° C./5% CO2/100% humidity. […] 80 nL of each concentration of compound was transferred from the compound plate to a corresponding well in the cell culture plate by Echo550 liquid handler. The plates were incubated for 2 hrs at 37° C./5% CO2/100% humidity. […] Chemiluminescence was then read on an EnVision reader (PerkinElmer).

[2] = test system: CDK2-independent (SKOV3, COV504, COV644) versus CDK2-dependent (COV318, OVCAR3, HCC1569) cell lines; assay: Cell proliferation selectivity assay (CyQUANT Direct Cell Proliferation Assay); type: cell-based; settings: mean of IC50 ratios between each CDK2-independent versus CDK2-dependent cell line; 120 hours incubation
Protocol: Compounds described herein were also tested in cell proliferation selectivity assays. OVCAR3, HCC1569, and SKOV3 cell lines were obtained from ATCC and cultured as recommended by supplier. COV318, COV504, and COV644 cell lines were obtained from Sigma-Aldrich and were cultured as recommended by supplier. The genetic background and dependency of each cell line was determined using publicly available databases: cBioPortal and DepMap. […] All six cell lines are CDK1-dependent given that CDK1 is an essential gene. Proliferation assay was carried out by seeding cells into 384-well plates at predetermined density (ranging from 150 to 1500 cells per well) in corresponding culture media, followed by brief centrifugation at 1000×g, and culturing cells for 24 hours at 37° C., 5% CO2. The following day, compounds were serially diluted (1l-point, 3-fold dilution scheme with 20 μM as top concentration) and dispensed directly onto cells using Echo 555 acoustic liquid handler (Labcyte). The cells were incubated with the compounds at 37° C., 5% CO2 for 120 hours. Relative number of viable cells in each well was determined using CyQUANT Direct Cell Proliferation Assay Kit (Invitrogen) per manufacturers protocol. The plates were read on EnVision 2105 multimode plate reader (Perkin Elmer) using FITC filter set. Dose response curve fitting and IC50 calculation was done using Genedata Screener software. Proliferation selectivity (i.e. selectivity index) for individual compound was derived as a mean of its IC50 ratios between each CDK2-independent versus CDK2-dependent cell line.

Row | Compound | IC50 (CDK2/Cyclin E complex) [nM] | IC50 [1] [nM] | Proliferation selectivity Index [2]
1 | Cc1cc(CC(=O)Nc2cc([C@H]3CC[C@@H](OC(N)=O)C3)[nH]n2)on1 (racemic) [Example 4] | 250 to 1000 | 1000 to 100000 | 
2 | Cc1cc(CC(=O)Nc2cc([C@@H]3CCC[C@H](OC(=O)NC4(C)CC4)CC3)[nH]n2)on1 (single isomer, unassigned) [Example 24] | 100 to 250 | 250 to 1000 | 
3 | Cc1cc(CC(=O)Nc2cc([C@H]3CC[C@@H](CC(=O)NC4(C)CC4)C3)[nH]n2)on1 (single isomer, unassigned) [Example 28] | 1000 to 100000 | 1000 to 100000 | 
4 | Cc1cc(CC(=O)Nc2cc([C@@H]3CC[C@@H](CC(=O)NC4(C)CC4)C3)[nH]n2)on1 (single isomer, unassigned) [Example 31] | 1000 to 100000 | 1000 to 100000 | 
5 | Cc1cc(CC(=O)Nc2ncn([C@@H]3CC[C@H](OC(=O)NC4(C)CC4)C3)n2)on1 (single isomer, unassigned) [Example 40] | 1000 to 100000 | 1000 to 100000 | 
6 | C=C(C)c1ccncc1O[C@@H]1CC[C@H](c2cc(NC(=O)Cc3cc(C)no3)n[nH]2)C1 (single isomer, unassigned) [Example 57] | ≤ 100 | ≤ 100 | 
7 | C=C(C)c1ccncc1O[C@H]1CC[C@@H](c2cc(NC(=O)Cc3cc(C)no3)n[nH]2)C1 (single isomer, unassigned) [Example 58] | ≤ 100 | ≤ 100 | 
8 | Cc1cc(CC(=O)Nc2cc([C@H]3CC[C@@H](NC(=O)NC(C)C)C3)[nH]n2)on1 (single isomer, unassigned) [Example 83] | 1000 to 100000 | 1000 to 100000 | 
9 | Cc1cc(CC(=O)Nc2cc([C@H]3CC[C@@H](N4CC(C)(C)NC4=O)C3)[nH]n2)on1 (single isomer, unassigned) [Example 91] | ≤ 100 | 1000 to 100000 | 
10 | Cc1cc(CC(=O)Nc2cc([C@@H]3CC[C@H](NC(=O)NC(C)C)C3)[nH]n2)on1 (single isomer, unassigned) [Example 102] | 1000 to 100000 | 1000 to 100000 | 
11 | Cc1cc(CC(=O)Nc2cc([C@H]3CC[C@@H](N4CC(C)(C)NC4=O)C3)[nH]n2)on1 (single isomer, unassigned) [Example 117] | ≤ 100 | 1000 to 100000 | 
12 | Cc1cc(CC(=O)Nc2cc([C@H]3CC[C@@H](Oc4nnccc4C)C3)[nH]n2)on1 (single isomer, unassigned) [Example 119] | ≤ 100 | 250 to 1000 | 
13 | CC(C)NC(=O)O[C@@H]1CC[C@H](c2cc(NC(=O)c3ccnn3C)n[nH]2)C1 [Example 5] | ≤ 100 | ≤ 100 | 
14 | CC(C)NC(=O)O[C@H]1CC[C@@H](c2cc(NC(=O)c3ccnn3C)n[nH]2)C1 [Example 6] | ≤ 100 | 100 to 250 | 
15 | CC1(NC(=O)O[C@@H]2CC[C@H](c3cc(NC(=O)Cc4ccccc4)n[nH]3)C2)CC1 [Example 7] | ≤ 100 | ≤ 100 | 
16 | COCc1cc(C(=O)Nc2cc([C@@H]3CC[C@H](OC(=O)N(C)C(C)C)C3)[nH]n2)n(C)n1 [Example 8] | ≤ 100 | 100 to 250 | 
17 | CC1(NC(=O)O[C@H]2CC[C@@H](c3cc(NC(=O)Cc4ccccc4)n[nH]3)C2)CC1 [Example 9] | ≤ 100 | ≤ 100 | 

Row | Compound | IC50 (CDK2/Cyclin E complex) [nM] | IC50 [1] [nM] | Proliferation selectivity Index [2]
18 | CC(C)NC(=O)O[C@@H]1CC[C@H](c2cc(NC(=O)Cc3ccccc3)n[nH]2)C1 [Example 12] | ≤ 100 | 100 to 250 | 
19 | CC(C)NC(=O)O[C@@H]1CC[C@H](c2cc(NC(=O)c3ccnc4ncsc34)n[nH]2)C1 [Example 13] | ≤ 100 | ≤ 100 | 
20 | CC(C)NC(=O)O[C@@H]1CC[C@H](c2cc(NC(=O)Cc3ccccc3S(C)(=O)=O)n[nH]2)C1 [Example 14] | ≤ 100 | 100 to 250 | 
21 | Cc1cc(C(=O)Nc2cc([C@H]3CC[C@@H](OC(=O)NC(C)C)C3)[nH]n2)on1 [Example 17] | ≤ 100 | 1000 to 100000 | 
22 | CC(C)NC(=O)O[C@@H]1CC[C@H](c2cc(NC(=O)Cc3ccnn3C)n[nH]2)C1 [Example 18] | ≤ 100 | 250 to 1000 | 
23 | CC(C)NC(=O)O[C@@H]1CC[C@H](c2cc(NC(=O)c3c[n+](C(C)(C)C)nn3C)n[nH]2)C1 [Example 19] | 250 to 1000 | 1000 to 100000 | 
24 | Cc1cc(CC(=O)Nc2cc([C@H]3CC[C@@H](OC(=O)NCCC(C)(C)O)C3)[nH]n2)on1 [Example 23] | 100 to 250 | 1000 to 100000 | 
25 | CC(C)NC(=O)O[C@@H]1CC[C@H](c2cc(NC(=O)Cn3nnc4ccccc4c3=O)n[nH]2)C1 [Example 41] | ≤ 100 | 1000 to 100000 | 
26 | CNC(=O)O[C@@H]1CC[C@H](c2cc(NC(=O)Cc3cc(C)no3)n[nH]2)C1 [Example 42] | 100 to 250 | 1000 to 100000 | 
27 | Cc1cc(CC(=O)Nc2cc([C@H]3CC[C@@H](C(=O)NC(C)C)CC3)[nH]n2)on1 [Example 55] | 1000 to 100000 | 1000 to 100000 | 
28 | Cc1cc(CC(=O)Nc2cc([C@H]3CC[C@H](C(=O)NC(C)C)CC3)[nH]n2)on1 [Example 56] | 1000 to 100000 | 1000 to 100000 | 
29 | CC(C)NC(=O)O[C@@H]1CC[C@H](c2cc(NC(=O)Cc3cnc4ncnn4c3)n[nH]2)C1 [Example 107] | 250 to 1000 | 1000 to 100000 | 
30 | Cc1cc(CC(=O)Nc2cc([C@H]3C[C@@H](OC(=O)NC(C)C)C3)[nH]n2)on1 [Example 110] | ≤ 100 | 1000 to 100000 | 
31 | CCC(=O)O[C@@H]1CC[C@H](c2cc(NC(=O)Cc3cc(C)no3)n[nH]2)C1 [Example 115] | 100 to 250 | 1000 to 100000 | 
32 | Cc1cc(CC(=O)Nc2cc([C@H]3CC[C@@H](OC(=O)NC(C)C)CC3)[nH]n2)on1 [Example 116] | ≤ 100 | 250 to 1000 | 
33 | CC(C)NC(=O)O[C@H]1CO[C@@H](c2cc(Nc3nccc4ncsc34)n[nH]2)C1 [Example I-41] |  |  | 15.98
34 | COCc1cc2c(Nc3cc([C@H]4C[C@@H](OC(=O)NC(C)(C)C(F)(F)F)CO4)[nH]n3)nccn2n1 [Example I-42] |  |  | 15.77
